Results on 1 compound are retold here after publication PMC9863691, “A Novel Ferroptosis Inhibitor UAMC-3203, a Potential Treatment for Corneal Epithelial Wound” (Pharmaceutics, 2022).

Data set [1] in a line: drug distribution in porcine cornea ex vivo. In kind it is in vitro ADME. The method, then: Fresh porcine (a crossbreed between Matias and Yorkside) eyes were collected in the laboratory animal center at the University of Eastern Finland. The eyes were stored overnight in a keratinocyte serum-free medium (Gibco, Life Technologies Corporation, Grand Island, NY, USA) at +4 °C. The cornea was excised using an incision along the limbus, as described earlier.
The isolated corneas were rinsed with PBS and mounted in vertical Franz diffusion cells (PermeGear, Inc., Hellertown, PA, USA). Small magnetic stir bars were added to each receiver chamber, and 5 mL of 35 °C BSS Plus supplemented with 10 mM of 4-(2-hydroxyethyl)-1-piperazineethanesulfonic acid (HEPES; Lonza Bioscience, Walkersville, MD, USA) was added to the receiver compartment of each Frantz cell. The experiment was initiated by adding 50 µM UAMC-3203 in 10 mM HEPES-BSS Plus solution to the donor compartment. Samples of 500 µL from donor compartments and corneas were collected at the end of the experiments (at 5, 30, 60, and 120 min). The cornea samples were rinsed with PBS, the epithelial layer was scraped off from the corneas, and the remaining stroma–endothelium samples were cut to pieces. The experiments were carried out in triplicates. The samples were stored at −80 °C until liquid chromatography–tandem mass spectrometry (LC-MS/MS) analyses were performed.
The values of apparent partition coefficients (Kp) were calculated using drug concentrations on the tissue samples (at 120 min) and in the donor compartment buffer at time zero (ng/mL).
Quantitative analysis of UAMC-3203 was performed with the LC-MS/MS system that consisted of an Agilent 1290 series liquid chromatograph connected to an Agilent 6495 triple-quadruple mass spectrometer (Agilent Technologies, Inc., USA). The mobile phase consisted of 0.1% formic acid (Fisher chemical, Geel, Belgium), 1 mM ammonium formate (Honeywell, Fluka, Seelze, Germany) in Milli-Q-H2O (eluent A), and acetonitrile (LC-MS Chromasolv, Honeywell, Riedel-de Haen, Seelze, Germany) (eluent B). Gradient elution was used: 0.0 to 3.0 min: 25%→95% B, 3.0 to 3.5 min: 95% B, 3.5 to 3.6 min: 95%→25% B, 3.6 to 5.0 min 25% B. Solvent flow was 0.3 mL/min, and Poroshell 120 SB-C18 column (2.1 mm × 50 mm, 2.7 µm, Agilent Technologies, Inc., USA) was maintained at 60 °C. The injection volume was 2 µL. Nitrogen was used as a drying, nebulizer, and collision gas. The following conditions were used in the electrospray ion source: positive ion mode, sheath gas flow rate 11 L/min at 350 °C, drying gas flow rate 16 L/min at 200 °C, nebulizer gas pressure adjusted to 25 psi, capillary voltage 3500 V (ESI+), fragmentor voltage 380 V, dwell time 150 ms and cell accelerator voltage 5 V. The data were analyzed with Agilent Mass Hunter Quantitative Analyzed software (vB.09.00, build 9.0.647.0, Agilent Technologies, CA, USA). The precursor and fragment ions are presented in Supplementary Table S1.

The conditions of data set [2]: pH 7.4.
In data set [3] the test system is alkali burn corneal wounds in ex vivo mouse eyes. Briefly: corneal epithelial wound healing in ex vivo mouse eyes. The arrangement: species or system C57BL/6 mice. The conditions noted are these: for initial wound area: 0–2 h after wound. The text has this: For the study, C57BL/6 mice (Laboratory Animal Centre, the University of Eastern Finland) were euthanized, and the eyes were excised carefully with sterile forceps and micro-scissors to avoid any damage to the cornea. The eyes were transported in ice-cold Dulbecco’s modified Eagle’s Medium/Ham’s F12 (DMEM/F-12, Gibco, Life Technologies, Carlsbad, CA, USA). Then the eyes were adhered to a Petri dish with tissue adhesive (3M Vetbond, St. Paul, MN, USA). The corneal epithelial wound was produced by placing an alkali soaked (0.5% sodium hydroxide) Whitman filter paper of 2 mm diameter on the corneal surface for 2 min, as reported earlier. After removal of the filter paper, the remaining epithelium on the alkali-exposed surface was carefully removed with a micro scalpel, and the eyes were rinsed with PBS. Pre-warmed UAMC-3203 (10 mL of 10 nM, 1µM, 10 µM, and 50 µM solutions) was added in serum-free media that was supplemented with 1% penicillin-streptomycin solution ([…], 0.1 mg/mL streptomycin) (Corning, Ref 30-002-CI, Mediatech Inc., Discovery Boulevard, Manassas, VA, USA) to the Petri dishes so that the eyes were submerged. The serum-free medium without UAMC-3203 was used as the negative control, and the medium with 10% FBS was used as the positive control. The samples were cultivated under standard tissue culture conditions (37 °C, 5% CO2-atmosphere, and 95% relative humidity) for 48 h. In order to measure the wound area, images were taken with a Zeiss Axio Scope A1 microscope (Carl Zeiss Microscopy GmbH, Oberkochen, Germany) at different time points (initial (in less than 2 h after wound), 6, 24, 30, and 48 h). For imaging, the media was removed from the dish, and 0.1% fluorescein (2 µL) was added to the corneal surface, followed by PBS (10 µL) to rinse excess fluorescein. A clean tissue was then used to soak excess fluorescein and PBS, and the medium was added again to the dish after imaging. The medium was changed after 24 h. The wound area was quantified with Fiji software.

The test system of data set [4] is mouse model of (multi)organ dysfunction and death. The arrangement: method as in PMID 35210435. The conditions noted are these: cited from earlier work.

For `O=S(=O)(NCCN1CCNCC1)c1ccc(NC2CCCCC2)c(NCc2ccccc2)c1` [UAMC-3203], in data set [1], the “Kp epithelium/donor relative to Kp stroma/epithelium” value is “≈ 52 times”. Also, the “levels in epithelium higher than in stroma–endothelium” value in data set [1] (50 µM donor) is 1–2 orders of magnitude. Besides, the “level in the cornea at 5 min” value in data set [1] (50 µM donor, 5 min) is recorded as “≈ 20 µM”. Besides, the Kp epithelium/donor in data set [1] (50 µM donor, 120 min) is listed as 1.95 ± 0.45. In data set [1] (50 µM donor, 120 min), the Kp stroma/epithelium came out at 0.04 ± 0.02. Besides, the “epithelium concentration relative to stroma at 120 min” value in data set [1] (120 min) was “≈ 28 times”. Moreover, in data set [1] (over the time points), the “concentration in corneal epithelium relative to corneal stroma” value is recorded as 12–38 fold. For the same compound, in data set [2], the “Log D7.4” value is recorded as 0.95. For the same compound, the initial wound area in data set [3] (10 nM) was found to be 2.59 ± 0.27 mm^2; in data set [3] (1 µM) it was 2.46 ± 0.42 mm^2; in data set [3] (10 µM), 2.44 ± 0.52 mm^2. Further, the “wound area at 48 h” value in data set [3] (10 nM) turned out to be 0.22 ± 0.16 mm^2; in data set [3] (1 µM), 0.35 ± 0.3 mm^2; in data set [3] (10 µM) it was 0.10 ± 0.21 mm^2. Also, the “wound area compared to negative control” value is listed as “significantly lower wound area at 48 h” in data set [3] (10 nM, p = 0.03); “no notable difference at any time point” in data set [3] (1 µM); “significant difference in wound area at 24–48 h” in data set [3] (10 µM, p ≤ 0.005). For the same compound, in data set [3] (10 nM–10 µM), the wound healing is > 85%. For the same compound, the “change of corneal epithelial wound area” value in data set [3] (50 µM) is on record as “did not cause any changes in the corneal epithelial wound area”. In addition, in data set [3] (ex vivo), the “optimal concentration for wound healing” value is 10 µM. Also, the “efficacy compared to Fer-1” value in data set [4] was “more effective”.
